# From article PMC8445441, “Elucidating the mechanism by which synthetic helper peptides sensitize Pseudomonas aeruginosa to multiple antibiotics” (PLoS Pathogens, 2021)
# Read-outs that look alike come from different tables or passages of the source.
# Experiments:
# P. aeruginosa HM-214 = conditions: strain HM-214; antibiotic + D-11 (MICb/MICbc 128/4)
# Method in brief: (§1)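 Broth microdilution per CLSI in MHB: two-fold drug dilutions mixed with an equal volume of bacterial suspension at approximately 1 × 10^6 CFU/mL, incubated 18 h at 37 °C. MIC was the lowest concentration with no visible growth; triplicate runs.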
# P. aeruginosa AUMC-Pa-3 = test: microbe, parasite or virus in culture; conditions: for MIC: Pseudomonas aeruginosa, AUMCPA3, 18 h, read-out: MICa: MIC of the antibiotic; for FICI / MICac: MIC of the antibiotic in the combination: strain AUMC-Pa-3; for FICI: antibiotic + D-11 (MICb/MICbc 128/4); for MICac: MIC of the antibiotic in the combination: with D-11 at MICbc 4, unit not given
# Method in brief: as §1
# P. aeruginosa AUMC-Pa-6 = test: microbe, parasite or virus in culture; conditions: strain AUMC-Pa-6; for FICI: antibiotic + D-11 (MICb/MICbc 64/4); for MICa: MIC of the antibiotic: antibiotic alone; for MICa: MIC of the antibiotic / MICac: MIC of the antibiotic in the combination: unit not given; for MICac: MIC of the antibiotic in the combination: with D-11 at MICbc 4
# Method in brief: as §1
# P. aeruginosa PAO1 = test: microbe, parasite or virus in culture; conditions: PAO1; for MIC: Pseudomonas aeruginosa, PAO1, 18 h, read-out: MICa: the MIC of antibiotics, S3 Table; for MIC / MICa: the MIC of antibiotics: antibiotic alone; for FICI / MICac: the MIC for the antibiotic in the combination / MICa: the MIC of antibiotics: S3 Table
# Method in brief: as §1
# P. aeruginosa AUMC-Pa-5 = test: microbe, parasite or virus in culture; conditions: strain AUMC-Pa-5; for FICI: antibiotic + D-11 (MICb/MICbc 64/4); for MICa: MIC of the antibiotic: antibiotic alone; for MICa: MIC of the antibiotic / MICac: MIC of the antibiotic in the combination: unit not given; for MICac: MIC of the antibiotic in the combination: with D-11 at MICbc 4
# Method in brief: as §1
# P. aeruginosa AUMC-Pa-4 = test: microbe, parasite or virus in culture; conditions: for FICI: antibiotic + D-11 (MICb/MICbc 128/4); for MICac: MIC of the antibiotic in the combination: with D-11 at MICbc 4
# Method in brief: as §1
# P. aeruginosa NR-31040 = test: microbe, parasite or virus in culture; set-up: MICa: MIC of the antibiotic / MICac: MIC of the antibiotic in the combination: unit not given beside the values; conditions: for FICI: antibiotic + D-11 (MICb/MICbc 128/4); for MICac: MIC of the antibiotic in the combination: with D-11 at MICbc 4
# Method in brief: as §1
# P. aeruginosa NR-31041 = test: microbe, parasite or virus in culture; set-up: MICa: MIC of the antibiotic / MICac: MIC of the antibiotic in the combination: unit not given beside the values; conditions: for MIC: Pseudomonas aeruginosa, NR31041, 18 h, read-out: MICa: MIC of the antibiotic; for FICI / MICac: MIC of the antibiotic in the combination: strain NR-31041; for FICI: antibiotic + D-11 (MICb/MICbc 64/4); for MICac: MIC of the antibiotic in the combination: with D-11 at MICbc 4, unit not given
# Method in brief: as §1
# P. aeruginosa ATCC27853 = test: microbe, parasite or virus in culture; set-up: MICa: MIC of the antibiotic / MICac: MIC of the antibiotic in the combination: unit not given beside the values; conditions: for MIC: Pseudomonas aeruginosa, ATCC27853, 18 h, read-out: MICa: MIC of the antibiotic; for FICI / MICac: MIC of the antibiotic in the combination: strain ATCC27853; for FICI: antibiotic + D-11 (MICb/MICbc 32/4); for MICac: MIC of the antibiotic in the combination: with D-11 at MICbc 4, unit not given
# Method in brief: as §1
# P. aeruginosa PA14 = test: microbe, parasite or virus in culture; set-up: MICa: MIC of the antibiotic / MICac: MIC of the antibiotic in the combination: unit not given beside the values; conditions: for FICI: antibiotic + D-11 (MICb/MICbc 128/4); for MICac: MIC of the antibiotic in the combination: with D-11 at MICbc 4
# Method in brief: as §1
# P. aeruginosa PAK = test: microbe, parasite or virus in culture; set-up: MICa: MIC of the antibiotic / MICac: MIC of the antibiotic in the combination: unit not given beside the values; conditions: for MIC: Pseudomonas aeruginosa, 18 h, read-out: MICa: MIC of the antibiotic; for FICI / MICac: MIC of the antibiotic in the combination: strain PAK; for FICI: antibiotic + D-11 (MICb/MICbc 64/4); for MICac: MIC of the antibiotic in the combination: with D-11 at MICbc 4, unit not given
# Method in brief: as §1
# [1] = test system: clinical P. aeruginosa isolates; test: microbe, parasite or virus in culture; conditions: Pseudomonas aeruginosa, 18 h, antibiotic alone
# Method in brief: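 Broth microdilution per CLSI in MHB, two-fold drug dilutions mixed with an equal volume of bacteria at about 1 × 10^6 CFU/mL. After 18 h at 37 °C, MIC taken as the lowest concentration with no visible growth; run in triplicate.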
# P. aeruginosa AUMC-Pa-1 = conditions: strain AUMC-Pa-1; antibiotic + D-11 (MICb/MICbc 128/4)
# Method in brief: as §1
# P. aeruginosa AUMC-Pa-2 = conditions: strain AUMC-Pa-2; antibiotic + D-11 (MICb/MICbc 64/4)
# Method in brief: as §1
# [2] = strain AUMC-Pa-4, unit not given
# [3] = strain NR-31040, unit not given
# [4] = read-out: Antibiotic sensibility (MIC) of clinical P. aeruginosa isolate AUMC-Pa-1, strain AUMC-Pa-1
# [5] = read-out: Antibiotic sensibility (MIC) of clinical P. aeruginosa isolate AUMC-Pa-2, strain AUMC-Pa-2
# [6] = read-out: Antibiotic sensibility (MIC) of clinical P. aeruginosa isolate AUMC-Pa-3, strain AUMC-Pa-3
# [7] = read-out: Antibiotic sensibility (MIC) of clinical P. aeruginosa isolate AUMC-Pa-4, strain AUMC-Pa-4
# [8] = read-out: Antibiotic sensibility (MIC) of clinical P. aeruginosa isolate AUMC-Pa-5, strain AUMC-Pa-5
# [9] = read-out: Antibiotic sensibility (MIC) of clinical P. aeruginosa isolate AUMC-Pa-6, strain AUMC-Pa-6
# [10] = read-out: Antibiotic sensibility (MIC) of clinical P. aeruginosa isolate HM-214, strain HM-214
# [11] = read-out: Antibiotic sensibility (MIC) of clinical P. aeruginosa isolate NR-31040, strain NR-31040
# [12] = read-out: Antibiotic sensibility (MIC) of clinical P. aeruginosa isolate NR-31041, strain NR-31041
smiles,measurement,setting,value
CO[C@H]1/C=C/O[C@@]2(C)Oc3c(C)c(O)c4c(c3C2=O)C2=NC3(CCN(CC(C)C)CC3)NC2=C(NC(=O)/C(C)=C\C=C\[C@H](C)[C@H](O)[C@@H](C)[C@@H](O)[C@@H](C)[C@H](OC(C)=O)[C@@H]1C)C4=O [Rifabutin],FICI,P. aeruginosa HM-214,0.039
same,MIC,P. aeruginosa AUMC-Pa-3,16 µM
same,FICI,P. aeruginosa AUMC-Pa-3,0.035
same,MICac: MIC of the antibiotic in the combination,P. aeruginosa AUMC-Pa-3,0.063
same,FICI,P. aeruginosa AUMC-Pa-6,0.313
same,MICa: MIC of the antibiotic,P. aeruginosa AUMC-Pa-6,16
same,MICac: MIC of the antibiotic in the combination,P. aeruginosa AUMC-Pa-6,4
same,MIC,P. aeruginosa PAO1,32 µM
same,FICI,P. aeruginosa PAO1; antibiotic + 2 μM D-11,0.064
same,FICI,P. aeruginosa PAO1; antibiotic + 4 μM D-11,0.126
same,MICac: the MIC for the antibiotic in the combination,P. aeruginosa PAO1; with 2 μM D-11,0.0625 µM
same,MICac: the MIC for the antibiotic in the combination,P. aeruginosa PAO1; with 4 μM D-11,0.03125 µM
same,MICa: the MIC of antibiotics,P. aeruginosa PAO1,32 µM
same,FICI,P. aeruginosa AUMC-Pa-5,0.313
same,MICa: MIC of the antibiotic,P. aeruginosa AUMC-Pa-5,32
same,MICac: MIC of the antibiotic in the combination,P. aeruginosa AUMC-Pa-5,8
same,FICI,P. aeruginosa AUMC-Pa-4; strain AUMC-Pa-4,0.094
same,MICa: MIC of the antibiotic,"P. aeruginosa AUMC-Pa-4; strain AUMC-Pa-4, antibiotic alone, unit not given",16
same,MICac: MIC of the antibiotic in the combination,P. aeruginosa AUMC-Pa-4; [2],1
same,FICI,P. aeruginosa NR-31040; strain NR-31040,0.094
same,MICa: MIC of the antibiotic,"P. aeruginosa NR-31040; strain NR-31040, antibiotic alone, unit not given",32
same,MICac: MIC of the antibiotic in the combination,P. aeruginosa NR-31040; [3],2
same,MIC,P. aeruginosa NR-31041,32 µM
same,FICI,P. aeruginosa NR-31041,0.070
same,MICac: MIC of the antibiotic in the combination,P. aeruginosa NR-31041,0.25
same,MIC,P. aeruginosa ATCC27853,16 µM
same,FICI,P. aeruginosa ATCC27853,0.133
same,MICac: MIC of the antibiotic in the combination,P. aeruginosa ATCC27853,0.25
same,MIC,"P. aeruginosa PA14; Pseudomonas aeruginosa, PA14, 18 h, read-out: MICa: MIC of the antibiotic",> 128 µM
same,FICI,P. aeruginosa PA14; strain PA14,0.039
same,MICac: MIC of the antibiotic in the combination,"P. aeruginosa PA14; strain PA14, unit not given",2
same,MIC,P. aeruginosa PAK,16 µM
same,FICI,P. aeruginosa PAK,0.078
same,MICac: MIC of the antibiotic in the combination,P. aeruginosa PAK,0.25
same,MIC,[1]; [4],32 µM
same,MIC,[1]; [5],8 µM
same,MIC,[1]; [6],16 µM
same,MIC,[1]; [7],16 µM
same,MIC,[1]; [8],32 µM
same,MIC,[1]; [9],16 µM
same,MIC,[1]; [10],32 µM
same,MIC,[1]; [11],32 µM
same,MIC,[1]; [12],32 µM
same,FICI,P. aeruginosa AUMC-Pa-1,0.039
same,FICI,P. aeruginosa AUMC-Pa-2,0.070
C[C@H]1c2cccc(O)c2C(=O)C2=C(O)[C@]3(O)C(=O)C(C(N)=O)=C(O)[C@@H](N(C)C)[C@@H]3[C@@H](O)[C@@H]21 [Doxycycline],FICI,P. aeruginosa HM-214,0.063
same,MIC,P. aeruginosa AUMC-Pa-3,16 µM
same,FICI,P. aeruginosa AUMC-Pa-3,0.063
same,MICac: MIC of the antibiotic in the combination,P. aeruginosa AUMC-Pa-3,0.5
same,FICI,P. aeruginosa AUMC-Pa-6,0.125
same,MICa: MIC of the antibiotic,P. aeruginosa AUMC-Pa-6,16
same,MICac: MIC of the antibiotic in the combination,P. aeruginosa AUMC-Pa-6,1
same,MIC,P. aeruginosa PAO1,16 µM
same,FICI,P. aeruginosa PAO1; antibiotic + 2 μM D-11,0.094
same,FICI,P. aeruginosa PAO1; antibiotic + 4 μM D-11,0.141
same,MICac: the MIC for the antibiotic in the combination,P. aeruginosa PAO1; with 2 μM D-11,0.5 µM
same,MICac: the MIC for the antibiotic in the combination,P. aeruginosa PAO1; with 4 μM D-11,0.25 µM
same,MICa: the MIC of antibiotics,P. aeruginosa PAO1,16 µM
same,FICI,P. aeruginosa AUMC-Pa-5,0.313
same,MICa: MIC of the antibiotic,P. aeruginosa AUMC-Pa-5,8
same,MICac: MIC of the antibiotic in the combination,P. aeruginosa AUMC-Pa-5,2
same,MIC,"P. aeruginosa AUMC-Pa-4; Pseudomonas aeruginosa, AUMCPA4, 18 h, read-out: MICa: MIC of the antibiotic",16 µM
same,FICI,P. aeruginosa AUMC-Pa-4; strain AUMC-Pa-4,0.063
same,MICac: MIC of the antibiotic in the combination,P. aeruginosa AUMC-Pa-4; [2],0.5
same,MIC,"P. aeruginosa NR-31040; Pseudomonas aeruginosa, NR31040, 18 h, read-out: MICa: MIC of the antibiotic",16 µM
same,FICI,P. aeruginosa NR-31040; strain NR-31040,0.039
same,MICac: MIC of the antibiotic in the combination,P. aeruginosa NR-31040; [3],0.125
same,MIC,P. aeruginosa NR-31041,16 µM
same,FICI,P. aeruginosa NR-31041,0.094
same,MICac: MIC of the antibiotic in the combination,P. aeruginosa NR-31041,0.5
same,MIC,P. aeruginosa ATCC27853,16 µM
same,FICI,P. aeruginosa ATCC27853,0.156
same,MICac: MIC of the antibiotic in the combination,P. aeruginosa ATCC27853,0.5
same,FICI,P. aeruginosa PA14; strain PA14,0.094
same,MICa: MIC of the antibiotic,"P. aeruginosa PA14; strain PA14, antibiotic alone, unit not given",16
same,MICac: MIC of the antibiotic in the combination,"P. aeruginosa PA14; strain PA14, unit not given",1
same,MIC,P. aeruginosa PAK,16 µM
same,FICI,P. aeruginosa PAK,0.094
same,MICac: MIC of the antibiotic in the combination,P. aeruginosa PAK,0.5
same,MIC,[1]; [4],32 µM
same,MIC,[1]; [5],8 µM
same,MIC,[1]; [6],16 µM
same,MIC,[1]; [7],16 µM
same,MIC,[1]; [8],8 µM
same,MIC,[1]; [9],16 µM
same,MIC,[1]; [10],16 µM
same,MIC,[1]; [11],16 µM
same,MIC,[1]; [12],16 µM
same,FICI,P. aeruginosa AUMC-Pa-1,0.063
same,FICI,P. aeruginosa AUMC-Pa-2,0.188
